Patent US7531547B2, “Diaminopyrimidines as P2X3 and P2X2/3 modulators” (Roche Palo Alto LLC, priority 2005, dated 2009)

Tests used:
human P2X2/3 receptor = molecular target: T1, human P2X2/3 receptor (Homo sapiens, UniProt P56373+Q9UBL9); assay: P2X2/3 FLIPR (Fluorometric Imaging Plate Reader) assay, CHO-K1 cells; type: cell-based; details: CHO-K1 cells transfected with human P2X2/3; agonist α,β-meATP 5 μM; Fluo-3 calcium fluorescence; read-out: pIC50 for the P2X2/3 receptor (converted)
T1 construct: expressed in transfected cells; host or cells: CHO-K1
T1 sequence (Q9UBL9 1-471): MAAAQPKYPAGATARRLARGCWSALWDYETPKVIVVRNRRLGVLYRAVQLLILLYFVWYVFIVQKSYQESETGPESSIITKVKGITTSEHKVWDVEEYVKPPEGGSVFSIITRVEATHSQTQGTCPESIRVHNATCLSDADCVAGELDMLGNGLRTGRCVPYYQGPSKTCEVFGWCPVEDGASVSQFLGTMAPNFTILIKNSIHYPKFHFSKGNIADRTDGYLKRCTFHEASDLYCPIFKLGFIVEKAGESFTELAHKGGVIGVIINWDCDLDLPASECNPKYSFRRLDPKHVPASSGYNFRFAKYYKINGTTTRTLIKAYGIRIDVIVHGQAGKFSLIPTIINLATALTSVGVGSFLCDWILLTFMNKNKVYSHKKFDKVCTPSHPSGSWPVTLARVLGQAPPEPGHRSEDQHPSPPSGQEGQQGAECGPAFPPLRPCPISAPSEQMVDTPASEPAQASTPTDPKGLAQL
T1 sequence (P56373 1-397): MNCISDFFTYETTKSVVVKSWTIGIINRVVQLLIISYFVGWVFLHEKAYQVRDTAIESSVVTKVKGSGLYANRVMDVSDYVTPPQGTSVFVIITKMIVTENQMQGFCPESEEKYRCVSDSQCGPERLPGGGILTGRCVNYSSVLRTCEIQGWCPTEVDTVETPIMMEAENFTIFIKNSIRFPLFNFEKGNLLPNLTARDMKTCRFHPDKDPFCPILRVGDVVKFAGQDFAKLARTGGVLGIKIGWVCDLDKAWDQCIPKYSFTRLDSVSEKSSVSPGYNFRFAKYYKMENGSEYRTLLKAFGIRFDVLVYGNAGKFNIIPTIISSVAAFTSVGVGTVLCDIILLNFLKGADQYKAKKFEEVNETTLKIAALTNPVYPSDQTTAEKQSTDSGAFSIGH
Experimental: (§1) CHO-K1 cells were transfected with cloned rat P2X3 or human P2X2/3 receptor subunits and passaged in flasks. 18-24 hours before the FLIPR experiment, cells were released from their flasks, centrifuged, and resuspended in nutrient medium at 2.5×10^5 cells/ml. The cells were aliquoted into black-walled 96-well plates at a density of 50,000 cells/well and incubated overnight in 5% CO2 at 37° C. On the day of the experiment, cells were washed in FLIPR buffer (calcium- and magnesium-free Hank's balanced salt solution, 10 mM HEPES, 2 mM CaCl2, 2.5 mM probenecid; FB). Each well received 100 μl FB and 100 μl of the fluorescent dye Fluo-3 AM [2 μM final conc.]. […]
(§2) Test compounds (dissolved in DMSO at 10 mM and serially diluted with FB) or vehicle were added to each well (25 μl of a 4× solution) and allowed to equilibrate for 20 minutes at room temperature. The plates were then placed in the FLIPR and a baseline fluorescence measurement (excitation at 488 nm and emission at 510-570 nm) was obtained for 10 seconds before a 100 μl/well agonist or vehicle addition. […] Fluorescence was measured for an additional 2 minutes at 1 second intervals after agonist addition. A final addition of ionomycin (5 μM, final concentration) was made to each well of the FLIPR test plate to establish cell viability and maximum fluorescence of dye-bound cytosolic calcium. […]

rat P2X3 receptor = molecular target: T2, rat P2X3 receptor (Rattus norvegicus, UniProt P49654); assay: P2X3 FLIPR (Fluorometric Imaging Plate Reader) assay, CHO-K1 cells; type: cell-based; details: CHO-K1 cells transfected with rat P2X3; agonist α,β-meATP 1 μM; Fluo-3 calcium fluorescence; read-out: pIC50 for the P2X3 receptor (converted)
T2 construct: expressed in transfected cells; host or cells: CHO-K1
T2 sequence (P49654 1-397): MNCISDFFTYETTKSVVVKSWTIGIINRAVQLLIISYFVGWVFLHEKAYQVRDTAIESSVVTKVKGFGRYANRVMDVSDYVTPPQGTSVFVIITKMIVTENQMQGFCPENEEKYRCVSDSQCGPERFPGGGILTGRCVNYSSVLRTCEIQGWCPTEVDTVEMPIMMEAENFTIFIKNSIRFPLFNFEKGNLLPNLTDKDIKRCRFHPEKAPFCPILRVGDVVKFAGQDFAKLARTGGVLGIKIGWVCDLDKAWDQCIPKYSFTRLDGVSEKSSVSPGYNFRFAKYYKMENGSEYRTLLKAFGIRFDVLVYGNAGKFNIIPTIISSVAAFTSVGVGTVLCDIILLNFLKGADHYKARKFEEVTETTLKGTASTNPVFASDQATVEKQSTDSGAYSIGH
Experimental: as §1, §2

SMILES | melting point | IC50 (human P2X2/3 receptor) | IC50 (rat P2X3 receptor)
C#Cc1cc(Oc2cnc(N)nc2N)c(C#C)cc1OC [Compound 25, 5-(2,5-Diethynyl-4-methoxy-phenoxy)-pyrimidine-2,4-diamine] | 163.2 to 164.1 °C |  | 
C#Cc1ccc(I)c(Oc2cnc(N)nc2N)c1 [Compound 27, 5-(5-Ethynyl-2-iodo-phenoxy)-pyrimidine-2,4-diamine] | 156 to 159 °C |  | 
COc1cc(C(C)C)c(Oc2cnc(N)nc2N)cc1C#CC1CC1 [Compound 19, 5-(5-Cyclopropylethynyl-2-isopropyl-4-methoxy-phenoxy)-pyrimidine-2,4-diamine] | 225.5 to 226.8 °C |  | 
C#Cc1cc(Oc2cnc(N)nc2N)c(C(C)C)cc1O [4-(2,4-Diamino-pyrimidin-5-yloxy)-2-ethynyl-5-isopropyl-phenol] |  | ~10.2 nM | ~5.75 nM
